From publication PMC5046085, “Systemic Inhibition of CREB is Well-tolerated in vivo” (Scientific Reports, 2016)

Legend:
[1] = tested on: T1, Gal4-MLL(2840–2858); assay: Gal4-MLL transcription reporter assay in HEK293T cells; type: cell-based, human; conditions: pG5B reporter, increasing concentrations, 5–7 h
T1 construct: human MLL (2840–2858) ([…]); expressed in transfected cells; host or cells: HEK293T
Experimental: (§1) In these transcription reporter assays, HEK293T cells were transfected with Gal4-fusions along with a Gal4-responsive luciferase reporter or SRF-responsive luciferase (SRE-Luc) reporter. For Gal4-TEAD4, coactivator YAP1 was also included for transfection to enhance its transcription activity. Then the cells were treated with increasing concentrations of 666-15. […] (Fig. 2D).
(§2) Figure 2 Selectivity of 666-15 against different transcription factors. […] HEK 293T cells were transfected with Gal4-MLL/pG5B (A) Gal4-c-Myb/pG5B (B) Gal4-TEAD4/YAP1/pG5B (C) or SRE-Luc (D). Then the transfected cells were treated with increasing concentrations of 666-15 for 5–7 h. The luciferase activity was then measured, normalized to the protein content and expressed as relative luciferase unit (RLuc)/μg protein.
(§3) 666-15 was described before. […]
(§4) HEK293T cells (ATCC) were routinely cultured in Dulbecco’s modified Eagle medium (DMEM, Life Technologies) supplemented with 10% fetal bovine serum (Hyclone) and non-essential amino acids (Life Technologies). […] The luciferase activity was measured by a tube luminometer (Berthold) using luciferase assay reagent (Promega). The protein concentration of the cell lysates in each well was determined using a Protein Assay Dye Reagent (Biorad). The luciferase activity in each well was normalized to the protein content and expressed as RLuc (relative luciferase unit)/μg protein.

[2] = target: T2, Gal4-c-Myb(241–325) (Homo sapiens, UniProt P10242); assay: Gal4-c-Myb transcription reporter assay in HEK293T cells; type: cell-based; conditions: pG5B reporter, increasing concentrations, 5–7 h
T2 construct: Gal4-c-Myb (241–325) was a generous gift of Dr. Anders Näär; expressed in transfected cells; host or cells: HEK293T
T2 sequence (P10242 with tags, fused parts or gaps limits assumed): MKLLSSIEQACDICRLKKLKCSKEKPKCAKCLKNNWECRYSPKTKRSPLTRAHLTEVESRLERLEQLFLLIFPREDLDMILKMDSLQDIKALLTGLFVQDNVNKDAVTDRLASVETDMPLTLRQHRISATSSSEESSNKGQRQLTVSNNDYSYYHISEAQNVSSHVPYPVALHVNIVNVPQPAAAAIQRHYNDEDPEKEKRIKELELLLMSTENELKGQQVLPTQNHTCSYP
Experimental: as §1, §2, §3, §4

[3] = In vivo pharmacokinetics, plasma concentration by LC-MS/MS; conditions: female, mouse, single dose 10 mg/kg IP, C57BL/6 mice, read-out: plasma concentration 24 h after drug administration
Experimental: Then the blood was collected at different time points and the plasma drug concentration was measured using tandem mass spectroscopy coupled with liquid chromatography (LC/MS-MS) methods.
Blood was collected at 0.083, 0.25, 0.5, 1, 2, 4, 8, 24 h post drug administration. Blood was collected from each mouse from the submandibular vein (3 time points/mouse). The blood was collected into the EDTA-K2 tubes, and centrifuged at 4,000× rpm for 10 min at 4 °C. The plasma was removed and stored at −80 °C until further analysis. The quantitative LC-MS/MS analyses were conducted using an Agilent 1200 HPLC system coupled to an API 4000 mass spectrometer equipped with an API electrospray ionization (ESI) source. The mobile phases used are a linear gradient of mobile phase A (10 mM ammonium acetate in H2O) and mobile phase B (10 mM ammonium acetate in 90% MeOH). The column used was Xtimate C18 2.1 × 30 mm (3 μm) with a flow rate of 0.6 mL/min. The mass spectrometer was operated in ESI positive ion mode and detection of the drugs was performed by multiple reaction monitoring (MRM).

[4] = tested on: c-Myb; design: method as in PMID 15585582, PMID 25740244; conditions: cited from earlier work

T1 sequence (P04386 with tags, fused parts or gaps): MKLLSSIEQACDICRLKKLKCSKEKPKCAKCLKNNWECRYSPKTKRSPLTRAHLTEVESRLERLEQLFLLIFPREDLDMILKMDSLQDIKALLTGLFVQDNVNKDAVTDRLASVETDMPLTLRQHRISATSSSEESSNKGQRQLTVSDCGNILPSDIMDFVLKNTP

SMILES | inhibition of Gal4-MLL-mediated transcription [1] | inhibition of Gal4-c-Myb-mediated transcription [2] | concentration at 24 h [3] [nM] | effect on c-Myb's activity [4]
NCCCOc1cc2ccccc2cc1C(=O)NCCOc1cc2ccccc2cc1C(=O)Nc1ccc(Cl)cc1O [666-15] | no inhibition | no inhibition | 50 to 100 | 
O=C(Nc1ccc(Cl)cc1)c1cc2ccccc2cc1OP(=O)(O)O [naphthol AS-E phosphate] |  |  |  | inhibits c-Myb’s activity
